This is an account of results in patent US8242274B2, “Triazolopyridine kinase inhibitors useful for the treatment of degenerative and inflammatory diseases” (Galapagos NV, priority 2008, dated 2012).

The target of data set [1] is T1, Recombinant human JAK1 catalytic domain (Homo sapiens, UniProt P23458).
T1 construct: Recombinant human JAK1 catalytic domain (amino acids 850-1154; catalog number 08-144); purchased Carna Biosciences 08-144
Nature of the data set: JAK1 inhibition assay. Type of data set: biochemical. The settings on record: semi-quantitative score. Here is the method: Recombinant human JAK1 catalytic domain (amino acids 850-1154; catalog number 08-144) was purchased from Carna Biosciences. 10 ng of JAK1 was incubated with 12.5 μg polyGT substrate (Sigma catalog number P0275) in kinase reaction buffer (15 mM Tris-HCl pH 7.5, 1 mM DTT, 0.01% Tween-20, 10 mM MgCl2, 2 μM non-radioactive ATP, 0.25 μCi 33P-gamma-ATP (GE Healthcare, catalog number AH9968) final concentrations) with or without 5 μL containing test compound or vehicle (DMSO, 1% final concentration), in a total volume of 25 μL, in a polypropylene 96-well plate (Greiner, V-bottom). After 45 min at 30° C., reactions were stopped by adding of 25 μL/well of 150 mM phosphoric acid. All of the terminated kinase reaction was transferred to prewashed (75 mM phosphoric acid) 96 well filter plates (Perkin Elmer catalog number 6005177) using a cell harvester (Perkin Elmer). Plates were washed 6 times with 300 μL per well of a 75 mM phosphoric acid solution and the bottom of the plates was sealed. 40 μL/well of Microscint-20 was added, the top of the plates was sealed and readout was performed using the Topcount (Perkin Elmer). Kinase activity was calculated by subtracting counts per minute (cpm) obtained in the presence of a positive control inhibitor (10 μM staurosporine) from cpm obtained in the presence of vehicle. The ability of a test compound to inhibit this activity was determined as: Percentage inhibition=((cpm determined for sample with test compound present−cpm determined for sample with positive control inhibitor)divided by(cpm determined in the presence of vehicle−cpm determined for sample with positive control inhibitor))*100%.
Dose dilution series were prepared for the compounds enabling the testing of dose-response effects in the JAK1 assay and the calculation of the IC50 for each compound. Each compound was routinely tested at concentration of 20 μM followed by a 1/3 serial dilution, 8 points (20 μM-6.67 μM-2.22 μM-740 nM-247 nM-82 nM-27 nM-9 nM) in a final concentration of 1% DMSO.

Data set [2] deals with T2, Recombinant human JAK2 catalytic domain (Homo sapiens, UniProt O60674).
T2 construct: Recombinant human JAK2 catalytic domain (amino acids 808-1132; catalog number PV4210); purchased Invitrogen PV4210
The data set can be described thus: JAK2 inhibition assay. The data set is classed as biochemical. Conditions: semi-quantitative score. Here is the method: Recombinant human JAK2 catalytic domain (amino acids 808-1132; catalog number PV4210) was purchased from Invitrogen. 0.025 mU of JAK2 was incubated with 2.5 μg polyGT substrate (Sigma catalog number P0275) in kinase reaction buffer (5 mM MOPS pH 7.5, 9 mM MgAc, 0.3 mM EDTA, 0.06% Brij and 0.6 mM DTT, 1 μM non-radioactive ATP, 0.25 μCi 33P-gamma-ATP (GE Healthcare, catalog number AH9968) final concentrations) with or without 5 μL containing test compound or vehicle (DMSO, 1% final concentration), in a total volume of 25 μL, in a polypropylene 96-well plate (Greiner, V-bottom). After 90 min at 30° C., reactions were stopped by adding of 25 μL/well of 150 mM phosphoric acid. All of the terminated kinase reaction was transferred to prewashed (75 mM phosphoric acid) 96 well filter plates (Perkin Elmer catalog number 6005177) using a cell harvester (Perkin Elmer). Plates were washed 6 times with 300 μL per well of a 75 mM phosphoric acid solution and the bottom of the plates was sealed. 40 μL/well of Microscint-20 was added, the top of the plates was sealed and readout was performed using the Topcount (Perkin Elmer). Kinase activity was calculated by subtracting counts per minute (cpm) obtained in the presence of a positive control inhibitor (10 μM staurosporine) from cpm obtained in the presence of vehicle. The ability of a test compound to inhibit this activity was determined as: Percentage inhibition=((cpm determined for sample with test compound present−cpm determined for sample with positive control inhibitor) divided by (cpm determined in the presence of vehicle−cpm determined for sample with positive control inhibitor))*100%.
Dose dilution series were prepared for the compounds enabling the testing of dose-response effects in the JAK2 assay and the calculation of the IC50 for each compound. Each compound was routinely tested at concentration of 20 μM followed by a 1/3 serial dilution, 8 points (20 μM-6.67 μM-2.22 μM-740 nM-247 nM-82 nM-27 nM-9 nM) in a final concentration of 1% DMSO.

A short description of data set [3]: Microsomal stability, human. The data set is classed as in vitro ADME. The settings on record: human liver microsomes, 3 μM compound, 37° C. On the procedure: A 10 mM stock solution of compound in DMSO was diluted 1000 fold in a 182 mM phosphate buffer pH 7.4 in a 96 deep well plate (Greiner, Cat no. 780285) and pre-incubated at 37° C.
40 μL of deionised water was added to a well of a polypropylene Matrix 2D barcode labelled storage tube (Thermo Scientific) and pre-incubated at 37° C.
A Glucose-6-phosphate-dehydrogenase (G6PDH) working stock solution was prepared in 182 mM phosphate buffer pH7.4 and placed on ice before use. A co-factor containing MgCl2, glucose-6-phosphate and NADP+ was prepared in deionised water and placed on ice before use.
A final working solution containing liver microsomes (Xenotech) of a species of interest (human, mouse, rat, dog), previously described G6PDH and co-factors was prepared and this mix was incubated for no longer than 20 minutes at room temperature.
30 μL of the pre-heated compound dilution was added to 40 μL of pre-heated water in the Matrix tubes and 30 μL of the microsomal mix was added. Final reaction concentrations were 3 μM compound, 1 mg microsomes, 0.4 U/mL GDPDH, 3.3 mM MgCl2, 3.3 mM glucose-6-phosphate and 1.3 mM NADP+.
To measure percentage remaining of compound at time zero MeOH or ACN was added (1:1) to the well before adding the microsomal mix. The plates were sealed with Matrix Sepra Seals™ (Matrix, Cat. No. 4464) and shaken for a few seconds ensure complete mixing of all components.
The samples which were not stopped are incubated at 37° C., 300 rpm and after 1 hour of incubation the reaction was stopped with MeOH or ACN (1:1).
After stopping the reaction the samples were mixed and placed on ice for 30 min to precipitate the proteins. The plates were then centrifuged 30 min at 1200 rcf at 4° C. and the supernatant was transferred to a 96 v-bottom PP plate (Greiner, 651201) for analysis on LCMS.
These plates were sealed with sealing mats (MA96RD-04S) of www.kinesis.co.uk and samples were measured at room temperature on LCMS (ZQ 1525 from Waters) under optimized conditions using Quanoptimize to determine the appropriate mass of the parent molecule.
The samples were analyzed on LCMS with a flow rate of 1 mL/min. Solvent A was 15 mM ammonia and solvent B was methanol or acetonitrile, depending on the stop solution used. The samples were run under positive ion spray on an XBridge C18 […] (2.1×30 mm) column, from Waters.
Peak area from the parent compound at time 0 was considered to be 100% remaining. The percentage remaining after 1 hour incubation was calculated from time 0 and was calculated as the percentage remaining. The solubility of the compound in the final test concentration in buffer is inspected by microscope and results are reported.
The data on microsomal stability are expressed as a percentage of the total amount of compound remaining after 60 minutes.
For orientation: Microsomes from liver hold many membrane-bound enzymes, among them those of drug oxidation.

Structures are written as SMILES.

T2 sequence (O60674 808-1132): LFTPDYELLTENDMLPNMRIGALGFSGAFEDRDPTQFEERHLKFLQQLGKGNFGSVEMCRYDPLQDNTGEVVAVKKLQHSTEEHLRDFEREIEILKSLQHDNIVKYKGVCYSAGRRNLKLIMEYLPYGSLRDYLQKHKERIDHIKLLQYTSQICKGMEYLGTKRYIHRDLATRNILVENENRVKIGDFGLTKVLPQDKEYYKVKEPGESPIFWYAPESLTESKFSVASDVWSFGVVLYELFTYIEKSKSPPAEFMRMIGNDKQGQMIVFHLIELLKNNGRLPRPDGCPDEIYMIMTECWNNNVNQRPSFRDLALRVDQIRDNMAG
T1 sequence (P23458 850-1154): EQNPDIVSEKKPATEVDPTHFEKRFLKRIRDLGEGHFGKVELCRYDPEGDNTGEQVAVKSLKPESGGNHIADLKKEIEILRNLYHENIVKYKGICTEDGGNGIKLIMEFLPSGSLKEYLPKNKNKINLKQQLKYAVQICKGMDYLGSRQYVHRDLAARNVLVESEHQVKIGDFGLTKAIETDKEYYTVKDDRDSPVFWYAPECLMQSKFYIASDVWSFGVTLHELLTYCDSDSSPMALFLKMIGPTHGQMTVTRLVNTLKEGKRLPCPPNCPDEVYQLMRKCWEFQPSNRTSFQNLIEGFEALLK

One may read the IC50 as the point on the concentration scale where inhibition reaches its midpoint. On to `O=C(Nc1nc2cccc(-c3ccc(NCc4ccccc4)cc3)n2n1)C1CC1` [Compound 72, N-(5-(4-(benzylamino)phenyl)-[1,2,4]triazolo[1,5-a]pyridin-2-yl)cyclopropanecarboxamide], for which the concentration for half-maximal inhibition (IC50) in data set [1] was in the range of 0.1 to 100 nM; in data set [2] it was 1 to 100 nM. In addition, the “Microsomal stability Human (%), compound remaining after 60 minutes” value in data set [3] is reported as 4.88%.
With `CC(=O)Nc1ccc(COc2ccc(-c3cccc4nc(NC(=O)C5CC5)nn34)cc2)cc1` [Compound 92, N-(5-(4-(4-acetamidobenzyloxy)phenyl)-[1,2,4]triazolo[1,5-a]pyridin-2-yl)cyclopropanecarboxamide], the IC50 in data set [1] is 0.1 to 100 nM. Besides, the “Microsomal stability Human (%), compound remaining after 60 minutes” value in data set [3] stood at 30.21%.
Take `O=C(Nc1nc2cccc(-c3ccc(OCc4ccccn4)cc3)n2n1)C1CC1` [Compound 37, N-(5-(4-(pyridin-2-ylmethoxy)phenyl)-[1,2,4]triazolo[1,5-a]pyridin-2-yl)cyclopropanecarboxamide]: the IC50 in data set [1] lay within 0.1 to 100 nM; in data set [2], 1 to 100 nM. The “Microsomal stability Human (%), compound remaining after 60 minutes” value in data set [3] was determined as 70.98%.
Consider `O=C(Nc1nc2cccc(-c3ccc(OCc4cccnc4)cc3)n2n1)C1CC1` [Compound 36, N-(5-(4-(pyridin-3-ylmethoxy)phenyl)-[1,2,4]triazolo[1,5-a]pyridin-2-yl)cyclopropanecarboxamide], for which the IC50 in data set [1] fell in the range of 0.1 to 100 nM; in data set [2], 1 to 100 nM. The “Microsomal stability Human (%), compound remaining after 60 minutes” value in data set [3] was 11.65%.
With `O=C(Nc1nc2cccc(-c3ccc(OCc4ccccc4)cc3)n2n1)C1CC1` [Compound 12, N-(5-(4-(benzyloxy)phenyl)-[1,2,4]triazolo[1,5-a]pyridin-2-yl)cyclopropanecarboxamide], the IC50 lay within 0.1 to 100 nM in data set [1] and 1 to 100 nM in data set [2]. Besides, the “Microsomal stability Human (%), compound remaining after 60 minutes” value in data set [3] turned out to be 70%.
For `N#Cc1ccc(COc2ccc(-c3cccc4nc(NC(=O)C5CC5)nn34)cc2)cn1` [Compound 176, N-(5-(4-((6-cyanopyridin-3-yl)methoxy)phenyl)-[1,2,4]triazolo[1,5-a]pyridin-2-yl)cyclopropanecarboxamide], the values for the IC50 in data set [1] and in data set [2] were 0.1 to 100 nM and 1 to 100 nM, respectively. Besides, the “Microsomal stability Human (%), compound remaining after 60 minutes” value in data set [3] was 157.1%.
For `O=C(Nc1nc2cccc(-c3ccc(OCc4ccc(C(F)(F)F)nc4)cc3)n2n1)C1CC1` [Compound 78, N-(5-(4-((6-(trifluoromethyl)pyridin-3-yl)methoxy)phenyl)-[1,2,4]triazolo[1,5-a]pyridin-2-yl)cyclopropanecarboxamide], the IC50 was in the range of 0.1 to 100 nM in data set [1] and 1 to 100 nM in data set [2]. For the same compound, in data set [3], the “Microsomal stability Human (%), compound remaining after 60 minutes” value came out at 78.21%.
As for `O=C(Nc1nc2cccc(-c3ccc(OCc4ccccc4)nc3)n2n1)C1CC1` [Compound 57, Cyclopropanecarboxylic acid [5-(6-benzyloxy-pyridin-3-yl)-[1,2,4]triazolo[1,5-a]pyridin-2-yl]-amide], the IC50 in data set [1] was 0.1 to 100 nM; in data set [2], 1 to 100 nM. In data set [3], the “Microsomal stability Human (%), compound remaining after 60 minutes” value is 42.75%.
